According to the CheMixHub viscosity set:

Assay: xn = mol fraction of the nth substance listed

ClC(Cl)Cl + c1ccccc1
Settings	viscosity [mPa·s]
293.15 K, 101 kPa, x1 = 0.101	0.627
293.15 K, 101 kPa, x1 = 0.245	0.606
293.15 K, 101 kPa, x1 = 0.433	0.593
293.15 K, 101 kPa, x1 = 0.653	0.582
298 K, 101 kPa, x2 = 0.1452	0.5431
298 K, 101 kPa, x2 = 0.2124	0.5457
298 K, 101 kPa, x2 = 0.2765	0.5478
298 K, 101 kPa, x2 = 0.3958	0.5532
298 K, 101 kPa, x2 = 0.5047	0.559
298 K, 101 kPa, x2 = 0.5556	0.562
298 K, 101 kPa, x2 = 0.6045	0.566
298 K, 101 kPa, x2 = 0.6513	0.5702
298 K, 101 kPa, x2 = 0.6963	0.5751
298 K, 101 kPa, x2 = 0.781	0.5844
298 K, 101 kPa, x2 = 0.8594	0.5943
298 K, 101 kPa, x2 = 0.8965	0.6002
298 K, 101 kPa, x2 = 0.9322	0.6044
298.15 K, 101 kPa, x1 = 0.0974	0.587
298.15 K, 101 kPa, x1 = 0.1964	0.581
298.15 K, 101 kPa, x1 = 0.2012	0.5935
298.15 K, 101 kPa, x1 = 0.3014	0.5886
298.15 K, 101 kPa, x1 = 0.3582	0.5866
298.15 K, 101 kPa, x1 = 0.4568	0.5805
298.15 K, 101 kPa, x1 = 0.4857	0.5773
298.15 K, 101 kPa, x1 = 0.6022	0.57
298.15 K, 101 kPa, x1 = 0.6861	0.557
298.15 K, 101 kPa, x1 = 0.7542	0.5603
298.15 K, 101 kPa, x1 = 0.8971	0.546
298.15 K, 101 kPa, x2 = 0.1029	0.546
298.15 K, 101 kPa, x2 = 0.1297	0.5454
298.15 K, 101 kPa, x2 = 0.2	0.525
298.15 K, 101 kPa, x2 = 0.2983	0.5512
298.15 K, 101 kPa, x2 = 0.3141	0.557
298.15 K, 101 kPa, x2 = 0.3724	0.5535
298.15 K, 101 kPa, x2 = 0.4	0.541
298.15 K, 101 kPa, x2 = 0.4086	0.5544
298.15 K, 101 kPa, x2 = 0.49	0.558
298.15 K, 101 kPa, x2 = 0.5395	0.5613
298.15 K, 101 kPa, x2 = 0.6	0.555
298.15 K, 101 kPa, x2 = 0.6023	0.5633
298.15 K, 101 kPa, x2 = 0.6707	0.5656
298.15 K, 101 kPa, x2 = 0.6862	0.5668
298.15 K, 101 kPa, x2 = 0.7414	0.5709
298.15 K, 101 kPa, x2 = 0.8	0.574
298.15 K, 101 kPa, x2 = 0.8037	0.581
298.15 K, 101 kPa, x2 = 0.8801	0.5866
298.15 K, 101 kPa, x2 = 0.9029	0.587
298.15 K, 101 kPa, x2 = 0.9214	0.589
298.15 K, 101 kPa, x2 = 0.962	0.5949
298.15 K, 101.33 kPa, x1 = 0.0672	0.5938
298.15 K, 101.33 kPa, x1 = 0.1508	0.5847
298.15 K, 101.33 kPa, x1 = 0.2151	0.5795
298.15 K, 101.33 kPa, x1 = 0.3057	0.5722
298.15 K, 101.33 kPa, x1 = 0.5108	0.5613
298.15 K, 101.33 kPa, x1 = 0.6489	0.559
298.15 K, 101.33 kPa, x1 = 0.8164	0.5493
298.15 K, 101.33 kPa, x1 = 0.9301	0.5403
303.15 K, 101 kPa, x1 = 0.101	0.548
303.15 K, 101 kPa, x1 = 0.245	0.533
303.15 K, 101 kPa, x1 = 0.433	0.527
303.15 K, 101 kPa, x1 = 0.653	0.52
308 K, 101 kPa, x2 = 0.1452	0.4917
308 K, 101 kPa, x2 = 0.2124	0.4939
308 K, 101 kPa, x2 = 0.2765	0.4958
308 K, 101 kPa, x2 = 0.3958	0.5001
308 K, 101 kPa, x2 = 0.5047	0.5049
308 K, 101 kPa, x2 = 0.5556	0.5077
308 K, 101 kPa, x2 = 0.6045	0.5108
308 K, 101 kPa, x2 = 0.6513	0.5136
308 K, 101 kPa, x2 = 0.6963	0.5168
308 K, 101 kPa, x2 = 0.781	0.5225
308 K, 101 kPa, x2 = 0.8594	0.5282
308 K, 101 kPa, x2 = 0.8965	0.5311
308 K, 101 kPa, x2 = 0.9322	0.5336
313.15 K, 101 kPa, x1 = 0.101	0.483
313.15 K, 101 kPa, x1 = 0.245	0.473
313.15 K, 101 kPa, x1 = 0.433	0.47
313.15 K, 101 kPa, x1 = 0.653	0.471
318 K, 101 kPa, x2 = 0.1452	0.451
318 K, 101 kPa, x2 = 0.2124	0.452
318 K, 101 kPa, x2 = 0.2765	0.4532
318 K, 101 kPa, x2 = 0.3958	0.4558
318 K, 101 kPa, x2 = 0.5047	0.4587
318 K, 101 kPa, x2 = 0.5556	0.4602
318 K, 101 kPa, x2 = 0.6045	0.4618
318 K, 101 kPa, x2 = 0.6513	0.4635
318 K, 101 kPa, x2 = 0.6963	0.4652
318 K, 101 kPa, x2 = 0.781	0.4685
318 K, 101 kPa, x2 = 0.8594	0.472
318 K, 101 kPa, x2 = 0.8965	0.4738
318 K, 101 kPa, x2 = 0.9322	0.4755
323.15 K, 101 kPa, x1 = 0.101	0.431
323.15 K, 101 kPa, x1 = 0.245	0.426
323.15 K, 101 kPa, x1 = 0.433	0.43
